“Also recorded” adds a separate entry of the source. Where a SMILES comes first, the peptide text is derived from it. Bridges are numbered along the chain shown (N, C = ends). [ ]: non-standard residue; d: D form. The star is where a group is joined. AllylGly = C=CC[C@H](N)C(=O)O; Ethoxycarbonyl = CCOC(=O)*; Butyryl = CCCC(=O)*; Bz = O=C(c1ccccc1)*; N3 = azide
Assays:
[1] = test system: gap junctions in hCMVEC cells; settings: 100 µM; for LY dye spread (number of LY-positive cells) as percentage of untreated control: mean ± SEM
Experimental: We next investigated the ability of peptide5 variants to inhibit gap junctional communication using a scrape loading assay. In this assay, the cells in culture are loaded with a dye (Lucifer Yellow dilithium salt (LY), M.W. 457.25 Da) of molecular size (<1 kDa) that is able to transit through the gap junctions and the degree of dye spread is then measured by counting the number of cells that contain LY (Supplementary Material, Method 4) ^1. Consistent with our previous study, peptide5 (1) and Cbx reduced the degree of dye spread following incubation with LY (56.16 ± 2.1%; p < 0.0001 and 16.2 ± 1.1%; p < 0.0001, respectively) compared to the untreated controls (Figure 12).
(§1) Human cerebral microvascular endothelial cells (hCMVEC) were purchased from Applied Biological Materials (ABM) Inc, Canada (cat # T0259) (O'Carroll et al., 2015). Cells were cultured in 1 μg/cm^2 collagen I (Gibco) coated T75 flasks from Corning (NY, USA). The growth media was M199 media (Gibco), supplemented with 10% FBS, 1 μg/mL hydrocortisone (Sigma), 3 μg/mL human FGF (Peprotech), 10 μg/mL human EGF (Peprotech), 10 μg/mL heparin (Sigma), 2 mM Glutamax (Gibco), and 80 μM butyryl cAMP (Sigma).
For experiments hCMVECs cells were plated M199 media at a density of 4 x 10^5 cells per well in a collagen coated (1 µg/cm^2) 12-well plate the day prior to the experiment to ensure a confluent monolayer of hCMVECs. On the day of the experiment cells were pre-incubated in carbenoxolone, (100 µM) Peptide5 (5–100 µM) or modified analogues (100 µM) or M199 as a negative control. Cells were washed three times with phosphate buffered saline (PBS) without Ca^2+ or Mg^2+ and incubated in 0.05% Lucifer Yellow (LY) (Sigma), a fluorescent dye that is transferred through coupled gap junction channels (el-Fouly, Trosko, & Chang, 1987), and scrape-wounded with a size 10 carbon steel surgical blade (Swann-Morton, England). Following a 5 minute incubation at 37 °C in 95% O2 and 5% CO2 without light, the 0.05% LY solution was removed. Cells were rinsed four times with HBSS containing Ca^2+ ^+, and then fixed in 4% paraformaldehyde (PFA) in PBS at pH 7.4 for 10 minutes at room temperature. Cells were then washed 3 times in PBS to remove PFA before fluorescent imaging. Fluorescent images were visualized using a Nikon TE2000E inverted fluorescent microscope (10x magnification, 0.3 numerical aperture), and captured using a Digital Sight CCD camera and Eclipse Net software (Nikon). Three images within each well from three independent experiments were taken for analysis, and the total number of cells showing dye uptake from those that had been loaded were counted manually by masked observers. Each peptide was tested in at least an n of 2 separate experiments.

[2] = target: T1, Cx43 hemichannel (Homo sapiens, UniProt P17302); experiment: HAIR ischemic injury-induced ATP release (hemichannel) assay, bioluminescence; assay type: cell-based; settings: hCMVEC cells, 2 h in HAIR solution, 100 µM; for ATP release compared to HAIR control (result in words) / ATP release compared to peptide5 (result in words): one-way ANOVA, Dunnett; for ATP release over untreated HAIR controls: mean ± SEM
T1 construct: ischemic injury–induced ATP release from hCMVEC cells in vitro; host or cells: hCMVEC (human cerebral microvascular endothelial cells)
Experimental: To test the effect of the peptide modifications on peptide5 (1) activity against hemichannels, a model of ischemic insult on a cell culture model of the brain microvasculature was used to induce Cx43 hemichannel opening and ATP release (Supplementary Material, Method 4). The cells were incubated in hypoxic-acidic ion-shifted ringers (HAIR) solution to generate disrupted pH and ion balance leading to ATP leak from the cells, which can be sampled and quantified luminometrically using a commercially available firefly luciferase assay (Molecular Probes).
as §1
For experiments hCMVECs were plated in M199 media at a density of 2.5 x 10^4 cells per well in a collagen-coated (1 µg/cm^2) 12-well plate the day prior to the experiment. Hypoxic, acidic, ion-shifted Ringer (HAIR) injury solution that mimics ionic concentrations and acid-base shifts of the interstitial space in hypoxic-ischemic brains (Bondarenko & Chesler, 2001) was used to trigger hemichannel opening as described previously (Kim et al., 2017). HAIR solution (38 mM NaCl, 13 mM NaHCO3, 3 mM Na-gluconate, 65 mM K-gluconate, 38 mM NMDG-Cl, 1 mM NaH2PO4, and 1.5 mM MgCl2) was bubbled in 95% N2, 5% CO2 gas (20 L/min) for 5 minutes and pH adjusted to 6.6 before use. To induce ischemic, cells were incubated for 2 hours in 500 µL HAIR solution +/- carbenoxolone (100 µM), Peptide5 or modified analogues (100 µM). For the negative control, hCMVEC cells were incubated for 2 hours in 500 µL standard Ringer solution 124 mM NaCl, 3 mM KCl, 26 mM NaHCO3, […], 1 mM NaH2PO4, 1.3 mM CaCl2, 1.5 MgCl2, and 10 mM glucose) adjusted to pH 7.4 before use. All incubations were carried out at 37 °C in 95% O2 and 5% CO2. At the end of each experiment, samples were removed and immediately placed on ice. The concentration of ATP in the samples was determined using a luciferin/luciferase bioluminescence reaction (ATP Determination Kit, Molecular Probes) and detected using a luminescence plate reader (FLUOStar OPTIMA FL, BMG Labtech). Standard curves were generated for each experiment from an ATP standard (0 to 500 nM) and used to convert bioluminescence units to ATP concentration. […] Only readings in the plateau phase of the reaction were included in averaging for the well value. Each peptide was tested in at least an n of 2 separate experiments.

[3] = Human serum stability assay (RP-HPLC); settings: for stability in human serum (result in words): 25% aq. human serum, 37°C, 48 h
Experimental: We then evaluated the N-methylated variants 7 and 8, D amino acid variants 9 and 10, and the two carbo cyclic peptides 39 and 42. Each peptide was incubated with 25% aq. human serum at 37°C, and 6 aliquots were extracted within 48 h. The stability of each peptide upon exposure to human serum was then analyzed via analytical RP HPLC, and the amount of peptide still present at each time point was recorded relative to t = 0 h.
Whole blood was collected from a healthy volunteer and stored in a covered test tube and was allowed to clot by leaving it undisturbed at r.t. for ca. 1 h. The clot was removed by centrifugation at 1,000-2,000 x g for 10 min and the resulting supernatant was designated as the serum. The serum was collected and stored in 0.5 mL aliquots, whereby the samples were stored at - 20 °C.
200 µM concentration of peptide was incubated in 25% aq. human serum (1.7 mL) and left to shake at 37 °C. Aliquots of human serum-peptide mixture (270 µL) were taken at given times (0 h, 1 h, 4 h, 8 h, 24 h, and 48 h) and threefold excess of acetonitrile (810 µL) was added to the aliquot and left for 1 h at 0 °C. The samples underwent centrifugation (14,500 rpm) for 30 min at r.t. and the supernatant was subsequently collected. Upon evaporation of the solvents, the resulting dry, pale-yellow residue was dissolved in water containing 0.1 % TFA.
The dissolved solution was analysed via analytical RP HPLC and the quantity of the peptide was expressed as a percentage relative to the peptide peak area obtained at time zero (i.e. 100% peptide amount at t = 0 h). A scatterplot graph representing percentage of peptide versus time was generated.

[4] = test system: gap junctions; settings: ref Kim et al., 2017b; cited from earlier work

T1 sequence (P17302 whole entry): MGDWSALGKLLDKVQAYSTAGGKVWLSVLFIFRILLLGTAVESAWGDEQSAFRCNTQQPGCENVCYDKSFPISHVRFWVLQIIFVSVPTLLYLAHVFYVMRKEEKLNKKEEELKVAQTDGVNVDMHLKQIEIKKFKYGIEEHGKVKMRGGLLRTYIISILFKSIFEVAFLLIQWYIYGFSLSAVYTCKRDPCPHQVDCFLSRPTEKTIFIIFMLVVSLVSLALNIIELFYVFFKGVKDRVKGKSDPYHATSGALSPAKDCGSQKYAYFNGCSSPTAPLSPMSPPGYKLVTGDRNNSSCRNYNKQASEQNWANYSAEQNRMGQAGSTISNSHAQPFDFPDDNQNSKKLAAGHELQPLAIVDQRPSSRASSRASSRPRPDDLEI

For `CC1(C)[C@@H](OC(=O)CCC(=O)O)CC[C@]2(C)[C@H]3C(=O)C=C4[C@@H]5C[C@@](C)(C(=O)O)CC[C@]5(C)CC[C@@]4(C)[C@]3(C)CC[C@@H]12` [Cbx, carbenoxolone, reference compound], the “LY dye spread (number of LY-positive cells) as percentage of untreated control” value [1] was 16.2 ± 1.1%.

In the case of `CC(C)C[C@H](NC(=O)[C@H](Cc1ccccc1)NC(=O)[C@H](CS)NC(=O)[C@H](CC(=O)O)NC(=O)[C@@H](N)C(C)C)C(=O)N[C@@H](CO)C(=O)N[C@@H](CCCNC(=N)N)C(=O)N1CCC[C@H]1C(=O)N[C@H](C(=O)N[C@@H](CCC(=O)O)C(=O)N[C@H](CCCCN)C(=O)N[C@H](C(=O)O)[C@@H](C)O)[C@@H](C)O` [Peptide 9, H2N-VDCFLSRPTEkT-CO2H] (H-VDCFLSRPTE[dK]T-OH), the “LY dye spread compared to peptide5 (result in words)” value (shortened to “LY dye spread compared to peptide5”) [1] is reported as “not statistically different from peptide5” and the “LY dye spread (number of LY-positive cells) as percentage of untreated control” value [1] is reported as 74.7 ± 10.4%.

For `CC(C)C[C@H](NC(=O)[C@H](Cc1ccccc1)NC(=O)[C@H](CS)NC(=O)[C@H](CC(=O)O)NC(=O)[C@@H](N)C(C)C)C(=O)N[C@@H](CO)C(=O)N[C@H](CCCNC(=N)N)C(=O)N1CCC[C@H]1C(=O)N[C@H](C(=O)N[C@@H](CCC(=O)O)C(=O)N[C@@H](CCCCN)C(=O)N[C@H](C(=O)O)[C@@H](C)O)[C@@H](C)O` [Peptide 10, H2N-VDCFLSrPTEKT-CO2H] (H-VDCFLS[dR]PTEKT-OH), the “ATP release compared to HAIR control (result in words)” value (“ATP release compared to HAIR control” for short) [2] was “complete lack of activity”, the “ATP release compared to peptide5 (result in words)” value (from here on “ATP release compared to peptide5”) [2] was “significantly increased compared to peptide5 (1)” and the “LY dye spread / gap junction inhibition compared to control (result in words)” value [1] was “did not reduce the degree of dye spread compared to control”. The “LY dye spread compared to peptide5” value [1] was “significantly increased compared to peptide5 (1)”.

In the case of `CC(C)C[C@@H]1NC(=O)[C@H](Cc2ccccc2)NC(=O)[C@H](CS)NC(=O)[C@H](CC(=O)O)NC(=O)[C@H](C(C)C)NC(=O)[C@@H](N)CC=CC[C@@H](C(=O)O)NC(=O)[C@H]([C@@H](C)O)NC(=O)[C@H](CCCCN)NC(=O)[C@H](CCC(=O)O)NC(=O)[C@H]([C@@H](C)O)NC(=O)[C@@H]2CCCN2C(=O)[C@H](CCCNC(=N)N)NC(=O)[C@H](CO)NC1=O` [Peptide 39] (H-[AllylGly]VDCFLSRPTEKT[AllylGly]-OH; staple 1-14), the “stability in human serum (result in words)” value [3] is reported as “good stability over 48 h; also recorded: the most stable in human serum”.

In the case of `CC(C)C[C@@H]1NC(=O)[C@H](Cc2ccccc2)NC(=O)[C@H](CS)NC(=O)[C@H](CC(=O)O)NC(=O)[C@H](C(C)C)NC(=O)[C@@H](N)CC=CC[C@@H](C(=O)N[C@H](C(=O)O)[C@@H](C)O)NC(=O)[C@H](CCC(=O)O)NC(=O)[C@H]([C@@H](C)O)NC(=O)[C@@H]2CCCN2C(=O)[C@H](CCCNC(=N)N)NC(=O)[C@H](CO)NC1=O` [Peptide 42] (H-[AllylGly]VDCFLSRPTE[AllylGly]T-OH; staple 1-12), the “stability in human serum (result in words)” value [3] is reported as “extremely resistant to enzymatic degradation; also recorded: the most stable in human serum” and the remaining at 48 h, 200 µM ([3]; human, serum) is reported as ~90%.

In the case of “(CH 3 ) 2 CH 2 CH 2 OCO-NH-VDCFLSRPTEKT-CO2H (isopentyloxycarbonyl-VDCFLSRPTEKT-OH) [Peptide 3]”, the “ATP release over untreated HAIR controls” value [2] is reported as 52.6 ± 1.3% and the “ATP release compared to peptide5” value [2] is reported as “equaling the efficacy of peptide5 (1)”.

With “CH 3 CH 2 CH 2 CO-NH-VDCFLSRPTEKT-CO2H (Butyryl-VDCFLSRPTEKT-OH) [Peptide 5]” the “ATP release over untreated HAIR controls” value [2] was 57.3 ± 12.4% and the “ATP release compared to peptide5” value [2] was “equaling the efficacy of peptide5 (1)”.

With “CH 3 CH 2 CH 2 CO-NH-VDCFLSRPTEKT-CONH 2 (Butyryl-VDCFLSRPTEKT-NH2) [Peptide 14]” the “LY dye spread compared to peptide5” value [1] was “significantly increased dye spread relative to peptide5 (1)”.

In the case of “CH 3 CH 2 OCO-NH-VDCFLSRPTEKT-CO2H (Ethoxycarbonyl-VDCFLSRPTEKT-OH) [Peptide 2]”, the “ATP release compared to HAIR control” value [2] is reported as “did not reduce ATP release compared to HAIR control” and the “LY dye spread compared to peptide5” value [1] is reported as “significantly increased dye spread relative to peptide5 (1)”.

For “CH 3 CH 2 OCO-NH-VDCFLSRPTEKT-CONH 2 (Ethoxycarbonyl-VDCFLSRPTEKT-NH2) [Peptide 11]”, the “LY dye spread compared to peptide5” value [1] was “significantly increased dye spread relative to peptide5 (1)”.

With “H2N-VDCFLSRPTEKT-CH 2 OH (H-VDCFLSRPTEKT-CH2OH) [Peptide 15]” the “LY dye spread compared to peptide5” value [1] was “significantly increased dye spread relative to peptide5 (1)”.

With “N 3 -VDCFLSRPTEKT-CO2H (N3-VDCFLSRPTEKT-OH) [Peptide 6]” the “ATP release compared to HAIR control” value [2] was “complete lack of activity; also recorded: did not reduce ATP release compared to HAIR control”, the “ATP release compared to peptide5” value [2] was “significantly increased compared to peptide5 (1)” and the “LY dye spread compared to peptide5” value [1] was “significantly increased dye spread relative to peptide5 (1)”.

With “PhCO-NH-VDCFLSRPTEKT-CO2H (Bz-VDCFLSRPTEKT-OH) [Peptide 4]” the “ATP release compared to HAIR control” value [2] was “did not reduce ATP release compared to HAIR control” and the “LY dye spread compared to peptide5” value [1] was “significantly increased dye spread relative to peptide5 (1)”.

For SRPTEKT [a truncated peptide5], the “gap junction inhibition compared with peptide5 (result in words)” value [4] is listed as “equally effective as a gap junction inhibitor”.

— article PMC9513234, “Synthesis and Biological Evaluation of Termini-Modified and Cyclic Variants of the Connexin43 Inhibitor Peptide5” (Frontiers in Chemistry, 2022)
